Results taken from patent US20070015813A1, “Treatment of protein folding disorders” (QUEEN'S UNIVERSITY AT KINGSTON, priority 2005, published 2007).

Columns and labels:
Aβ1-40 [1] = target: T1, Aβ1-40 (Homo sapiens, UniProt P05067); test: Kinetic Thioflavin T (ThT) aggregation assay of Aβ1-40; assay type: biochemical; settings: 20 μM Aβ1-40, 4 μM ThT, pH 7.4, 37° C., kinetic ThT assay
T1 construct: Aβ^1-40 (AnaSpec, San Jose, Calif., lots 14212, 34862 and 34889); purchased AnaSpec, San Jose, Calif
T1 sequence (P05067 672-711 limits assumed): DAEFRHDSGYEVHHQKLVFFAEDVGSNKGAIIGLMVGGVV
Experimental: Aβ^1-40 (1.0 mg) was pre-treated in a 1.5 mL microfuge tube with 1,1,1,3,3,3-hexafluoroisopropanol (HFIP, 1 mL) and sonicated for 20 min. to disassemble any pre-formed Aβ aggregates. The HFIP was removed with a stream of argon and the Aβ dissolved in Tris base (5.8 mL, 20 mM, pH 10.5). The pH was adjusted to 7.4 with concentrated HCl and the solution filtered using a syringe filter (0.2 μm). This solution was used for circular dichroism studies or diluted with an equal volume of 8 μM Thioflavin T (ThT) in Tris-HCl (20 mM, pH 7.4, 300 mM NaCl) for the ThT aggregation assay.
Aliquots (200 μL) of Aβ^1-40, Aβ^1-42, tau441 or α-synuclein with ThT or ThS were added to wells of a black polystyrene 96-well plate, followed by 2 μL of a compound in DMSO (various concentrations), or DMSO alone (controls). For α-synuclein, sodium dodecyl sulfate solution (2.0 μL, 30 mM) was also added to each well to induce aggregation. Incubations were performed in triplicate and were taken to contain 20 μM Aβ^1-40 or Aβ^1-42, 6 μM tau441 or 4 μM α-synuclein. Plates were covered with clear polystyrene lids and incubated at 37° C. in a GENios microplate reader obtained from Tecan Group Limited, Mannedorf, Zurich. For Aβ^1-40, tau441 and α-synuclein, fluorescence readings (λex=450 nm, λem=480 nm) were taken every 15 min., after first shaking at high intensity for 15 sec. and allowing to settle for 10 sec. before each reading. For Aβ^1-42, readings were taken every 5 min.
The absorbance of each compound was measured under the conditions used during testing, though on ten times the scale (2 mL), to ensure no significant quenching interfered with the assay. This step was also used to identify whether compounds were completely soluble under testing conditions.
FIG. 1 depicts the inhibition of Aβ^1-40 aggregation, as measured by Thioflavin T (ThT) fluorescence, by directly-linked 3,3′-bis-indolyl compounds 0c-i (A), other bis-indoles (B), aza-indole-containing compounds (C), indole-phenols (D), indole-5-carboxylic acid-containing bi-aromatics (E), and naphthol-containing bi-aromatics (F). Aggregation conditions: 20 μM Aβ^1-40 incubated in covered black 96-well polystyrene microplates with 4 μM ThT, pH 7.4, Tris-HCl (20 mM), 150 mM NaCl, 1% DMSO. Compound concentrations are 200 μM (A,B, except where otherwise noted), 100 μM (E), 20 μM (F), or as indicated (C,D). Plates heated at 37° C. in Tecan Genios microplate reader. All incubations performed in triplicate. Prior to experiment, Aβ^1-40 pretreated with 1,1,1,3,3,3-hexafluoroisopropanol (HFIP). Fluorescence readings: fluorescence measured every 15 min. (λex=450 nm, λem=480 nm) after shaking for 15 sec. and pausing 10 sec. before taking measurement. Values are the mean of three replicates. Error bars, omitted for clarity in (B), represent standard deviation of the mean.

Aβ1-40 [2] = target: T1, Aβ1-40; test: “Seeded” Thioflavin T aggregation assay for Aβ1-40; assay type: biochemical; settings: HFIP pretreatment omitted
Excerpt: The same procedure as described in Thioflavin T Aggregation Assay was used for “seeded” ThT aggregarion assay for Aβ^1-40 but the HFIP pretreatment was omitted. The presence of small Aβ^1-40 aggregates in the untreated batches caused aggregation to begin immediately rather than after a 12-24 hr. lag period.

Aβ1-40 [3] = target: T1, Aβ1-40; test: Circular dichroism studies of Aβ1-40; assay type: biochemical; settings: 40 μM Aβ1-40, 200 μM compound, pH 7.4, 37° C.
Experimental: Aliquots (220 μL) of pretreated Aβ^1-40 (40 μM in 20 mM Tris-HCl, pH 7.4) were added directly to 1 mm quartz circular dichroism (CD) cells, followed by 2.2 μL compound (of varying concentration) in methanol or methanol alone (controls). Solutions were incubated at 37° C. for up to 6 days. CD scans were performed on a J-810 spectropolarimeter (obtained from Jasco Corporation, Tokyo, Japan) between 190 and 250 nm, with a resolution of 0.1 nm and bandwidth of 1 nm. Ten scans were obtained for each reading. Spectra had background CD of the buffer subtracted and were left unsmoothed. Readings were performed at 37° C.
FIG. 6 depicts circular dichroism (CD) of Aβ^1-40 alone (A) and in the presence of 0j (B) and morin (C). Conditions: 40 μM Aβ^1-40, 200 μM compound (B,C), pH 7.4, Tris-HCl (20 mM), 1% MeOH. Prior to experiment, Aβ^1-40 pretreated with 1,1,1,3,3,3-hexafluoroisopropanol (HFIP).

Aβ1-40 [4] = target: T1, Aβ1-40; test: 1H NMR binding of bi-aromatics to Aβ1-40; settings: 100 μM Aβ1-40, 50 μM compound, D2O, 27° C.
Experimental: Aβ^1-40 was dissolved in HFIP (1 mL) and sonicated (20 min) to disassemble any pre-formed aggregates. The HFIP was removed with a stream of Ar(g) and the waxy residue dissolved in 2.2 mL buffer (Tris-d11, 20 mM in D2O). Incubations (0.500 mL) were made directly in thin-walled NMR tubes, to which were added compound (2.5 μL, 10 mM in DMSO-d6) or vehicle. An identical incubation lacking Aβ^1-40 was used as compound reference. Spectra were obtained for Aβ^1-40 alone (100 μM), compound alone (50 μM) and for a mixture of both (100 μM Aβ^1-40, 50 μM compound). Spectra were recorded at 500 MHz and 27° C. (300K), with 674 scans obtained for each.
FIG. 9 depicts ^1H NMR spectra identifying binding of 5-bromo-5′-carboxy-3,3′-bis-indolyl (0c) to Aβ^1-40. Spectra were obtained for Aβ^1-40 alone (100 μM, A), compound alone (50 μM, C) and for a mixture of both (100 μM Aβ^1-40, 50 μM compound, B). Spectra were recorded at 500 MHz and 27° C. (300K) in D2O containing 1% DMSO-d6, and 674 scans were obtained for each.

| inhibition of Aβ1-40 aggregation, as measured by Thioflavin T (ThT) fluorescence (Aβ1-40 [1]) | inhibition of Aβ1-40 aggregation in “seeded” ThT assay (Aβ1-40 [2]) | random coil (RC)→β-sheet transition of Aβ1-40 by circular dichroism (Aβ1-40 [3]) | binding to Aβ1-40 by 1H NMR (signal broadening) (Aβ1-40 [4]) | SMILES |
| --- | --- | --- | --- | --- |
| dose-response effect | inhibition | this transition was inhibited | binding | O=C(O)c1ccc2[nH]cc(-c3c[nH]c4ccc(Br)cc34)c2c1 [0c, 3-(5-bromo-indol-3-yl)-indole-5-carboxylic Acid] |
| inhibition | – | – | – | O=c1c(O)c(-c2ccc(O)cc2O)oc2cc(O)cc(O)c12 [morin] |
